# Results: patent US6271205A, “Cancer treatment by expression of differentiation factor receptor” (University of Massachusetts Medical Center, priority 1997, dated 2001)
# System: C6 rat glioma cells
# Assay: Induction of cell cycle arrest in C6 cells with aphidicolin
# Format: cell-based
# Details: 0.3 μM aphidicolin, 5 days
# Protocol: SH-SY5Y cells were grown at 37° C. in RPMI 1640 medium (GIBCO BRL, Gaithersburg, Md.) supplemented with 10% fetal bovine serum (Sigma Chemicals, St. Louis, Mo.) and 100 μg/ml of gentamicin. For differentiation studies, cells were plated (1.5×10^5 to 5×10^5 cells/dish) in 35-mm Primaria dishes (Falcon, Franklin Lakes, N.J.). One hundred ng/ml NGF (2.5 S; Bioproducts for Science, Indianapolis, Ind.) and/or 0.3 μM aphidicolin (Sigma Chemicals, St. Louis, Mo.) were added every 2-3 days. Cell proliferation was assessed by BrdU labeling, as described by LoPresti et al. (Cell Growth Diff. (1992) 3:627-635).
# 0.3 μM aphidicolin (Sigma, St. Louis Mo.) was added to logarithmically growing C6 rat glioma cells (ATCC, CCL 107, Rockville, Md.) in MEM medium supplemented with 10% fetal bovine serum (Sigma, St. Louis, Mo.). After 5 days incubation, growth arrested cells were removed with trypsin and 2.0×10^4 cells were seeded on polyornithine coated coverslips (polyornithine hydrobromide, Sigma) containing aphidicolin supplemented media for another five days in 24-well plates. Coverslips were then fixed in either methanol (10 minutes at -20° C.) or 4% paraformaldehyde (20 minutes at room temperature) for immunohistochemical analysis.
# Less than 5% of cells were stained to any extent with antibodies to GFAP, medium and heavy chain neurofilament (SMI-312) or MAP-2. […]
structure (smiles),measurement,setting,value
C[C@@]1(CO)[C@H](O)CC[C@@]2(C)[C@H]1CC[C@H]1C[C@@H]3C[C@@]12CC[C@]3(O)CO [aphidicolin],cells extending branched complex neurite-like processes,,48%
same,BrDU labeling (proliferation),"MEM + 10% FBS, untreated cells 52%",7.2%
